From paper PMC6094957, “BdorOR88a Modulates the Responsiveness to Methyl Eugenol in Mature Males of Bactrocera dorsalis (Hendel)” (Frontiers in Physiology, 2018)

Columns and labels:
BdorOR88a/BdorOrco = biological target: T1, BdorOR88a/BdorOrco (Bactrocera dorsalis, UniProt A0A0G2UKI5); test: two-electrode voltage clamp, Xenopus oocytes; assay type: cell-based
T1 construct: gene OR88a; full-length OR88a (1,245 nt, 414 aa) co-expressed with BdorOrco from pCS2+ cRNAs in Xenopus laevis oocytes; with Odorant receptor coreceptor
T1 sequence (A0A0G2UKI5 1-414): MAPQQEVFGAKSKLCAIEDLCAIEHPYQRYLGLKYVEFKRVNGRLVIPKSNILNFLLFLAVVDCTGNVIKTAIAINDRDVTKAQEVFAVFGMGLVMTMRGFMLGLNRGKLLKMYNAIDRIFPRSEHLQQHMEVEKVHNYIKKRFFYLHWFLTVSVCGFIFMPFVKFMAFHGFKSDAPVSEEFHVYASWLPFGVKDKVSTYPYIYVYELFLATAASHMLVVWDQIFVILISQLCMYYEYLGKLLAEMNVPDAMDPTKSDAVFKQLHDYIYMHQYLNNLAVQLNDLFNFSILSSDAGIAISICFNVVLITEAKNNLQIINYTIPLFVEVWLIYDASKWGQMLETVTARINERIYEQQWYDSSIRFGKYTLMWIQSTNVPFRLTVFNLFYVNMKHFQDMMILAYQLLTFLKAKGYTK
T1 sequence (B2Z9Z0 1-473 partner): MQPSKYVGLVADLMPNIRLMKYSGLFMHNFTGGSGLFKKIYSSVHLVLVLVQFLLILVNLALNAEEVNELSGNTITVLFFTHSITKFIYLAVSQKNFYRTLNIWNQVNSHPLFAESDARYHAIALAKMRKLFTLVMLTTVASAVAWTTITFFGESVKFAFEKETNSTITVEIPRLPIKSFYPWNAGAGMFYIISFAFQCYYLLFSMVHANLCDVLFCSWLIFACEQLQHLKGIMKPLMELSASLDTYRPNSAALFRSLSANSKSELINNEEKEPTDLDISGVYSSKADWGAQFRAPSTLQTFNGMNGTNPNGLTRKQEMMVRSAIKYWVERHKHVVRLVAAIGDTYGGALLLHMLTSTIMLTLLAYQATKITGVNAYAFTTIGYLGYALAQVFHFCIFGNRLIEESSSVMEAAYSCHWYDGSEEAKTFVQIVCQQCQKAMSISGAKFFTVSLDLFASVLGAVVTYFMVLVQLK
Excerpt: two-electrode voltage clamp, Xenopus oocytes on BdorOR88a/BdorOrco | half the maximal effective concentration

BdorOR63a-1/BdorOrco = biological target: T2, BdorOR63a-1/BdorOrco (Bactrocera dorsalis, UniProt A0A0G2UMW5); test: two-electrode voltage clamp, Xenopus oocytes; assay type: cell-based; settings: weak response at 1 × 10^-3 M ME; co-expressed BdorOrco; holding potential -80 mV; Ringer's pH 7.6
T2 construct: gene OR63a-1; full-length OR63a-1 (1,248 nt, 415 aa) co-expressed with BdorOrco from pCS2+ cRNAs in Xenopus laevis oocytes; with Odorant receptor coreceptor
T2 sequence (A0A0G2UMW5 1-415): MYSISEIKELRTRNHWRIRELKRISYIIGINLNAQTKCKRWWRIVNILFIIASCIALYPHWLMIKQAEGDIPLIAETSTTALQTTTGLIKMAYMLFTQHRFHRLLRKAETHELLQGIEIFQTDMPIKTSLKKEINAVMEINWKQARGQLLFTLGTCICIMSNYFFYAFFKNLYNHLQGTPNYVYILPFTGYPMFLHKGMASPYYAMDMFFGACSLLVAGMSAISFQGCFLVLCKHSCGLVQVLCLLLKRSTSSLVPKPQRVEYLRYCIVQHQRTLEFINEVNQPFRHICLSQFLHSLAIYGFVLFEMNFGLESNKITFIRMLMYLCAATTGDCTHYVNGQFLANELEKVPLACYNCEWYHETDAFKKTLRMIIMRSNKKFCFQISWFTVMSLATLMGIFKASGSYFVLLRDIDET
T2 sequence (B2Z9Z0 1-473 partner): T1 sequence (B2Z9Z0 1-473 partner)

## C=CCc1ccc(OC)c(OC)c1 [ME, methyl eugenol]
BdorOR88a/BdorOrco
  EC50: 28.3 µM
BdorOR63a-1/BdorOrco
  current at 1 × 10^-3 M: ~ 30 nA
